Measurements: publication PMC3894963, “Expression and Functional Characterization of Membrane-Integrated Mammalian Corticotropin Releasing Factor Receptors 1 and 2 in Escherichia coli” (PLoS ONE, 2014)
“Also recorded” adds a separate entry of the source. One block for each compound: values may come before it. Ends that are not written are not given here.

Assays:
hCRFR1α [1] = molecular target: T1, hCRFR1α (Homo sapiens, UniProt P34998); assay: Competitive displacement of labeled PD-sauvagine, hCRFR1α in E. coli membranes; format: binding; settings: E. coli membranes (Figure 14)
T1 construct: The cDNAs encoding full-length mature forms of hCRFR1α and mCRFR2β were introduced into pET-26b plasmid; made in house; host or cells: E. coli (membrane fraction)
T1 sequence (P34998 24-415): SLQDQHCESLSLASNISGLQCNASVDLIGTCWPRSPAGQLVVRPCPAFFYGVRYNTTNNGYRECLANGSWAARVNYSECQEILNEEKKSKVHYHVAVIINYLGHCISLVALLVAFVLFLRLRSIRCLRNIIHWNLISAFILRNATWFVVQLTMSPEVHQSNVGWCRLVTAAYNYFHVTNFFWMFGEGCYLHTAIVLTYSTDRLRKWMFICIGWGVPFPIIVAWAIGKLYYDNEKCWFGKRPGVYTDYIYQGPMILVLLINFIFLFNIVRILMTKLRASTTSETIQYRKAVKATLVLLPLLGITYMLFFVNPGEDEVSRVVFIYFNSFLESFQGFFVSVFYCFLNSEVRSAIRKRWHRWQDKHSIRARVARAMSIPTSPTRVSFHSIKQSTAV
Procedure: Each assay included at least triplicate wells for each concentration, and the assays were repeated at least twice (except where indicated).
(§1) The saturation and competitive binding experiments are analyzed by non-linear regression with the GraphPad Prism program (www.graphpad.com) assuming binding to a single site. Specifically, for saturation binding experiments, binding is determined as a function of increasing concentrations of radioligand. The equation used is y = {(Bmax)^.[radioligand]}/{Kd+[radioligand]}, where y = the specific binding (i.e., total binding-non-specific binding). Competitive binding experiments use a constant concentration of radioligand together with increasing concentrations of competitor. […] Because [radioligand] is <Kd, the Ki = EC50. For multiple determinations, Log (EC50) values were averaged to calculate the values in Table 1. […] In Table 1, the inhibition constant (Ki) values are shown together with the standard error and ranges, calculated assuming log normal distribution.

CRFR1 = tested on: CRFR1; parameters: method as in PMID 9415408; settings: CRFR1 in mammalian cells; cited from earlier work
mCRFR2β [2] = molecular target: T2, mCRFR2β (Mus musculus, UniProt Q60748); assay: Competitive displacement of labeled astressin, mCRFR2β in E. coli membranes; format: binding; settings: for Displacement of bound labeled astressin: mCRFR2β, E. coli membranes (Figure 11B)
T2 construct: mCRFR2β(Val25-C-term) - PhoA; made in house; host or cells: E. coli (membrane fraction)
Procedure: as §1, with “The incubation was performed at room temp for 90-120 min, at which time the plates were aspirated and each well was washed with 2×100 μl assay buffer, dried and counted in a γ-counter. Each assay included at least triplicate wells for each concentration, and the assays were repeated at least twice (except where indicated). […] The saturation” for “The saturation”

hCRFR1α [3] = molecular target: T1, hCRFR1α; assay: Binding of labeled sauvagine, hCRFR1α in E. coli; settings: hCRFR1α expressed in E. coli, [^125I-Tyr^0,Glu^1,Nle^17]-sauvagine
Procedure: (§2) The incubation was performed at room temp for 90–120 min, at which time the plates were aspirated and each well was washed with 2×100 µl assay buffer, dried and counted in a γ-counter. Each assay included at least triplicate wells for each concentration, and the assays were repeated at least twice (except where indicated).

mCRFR2β [4] = molecular target: T2, mCRFR2β; assay: Binding of labeled sauvagine, mCRFR2β in E. coli; settings: mCRFR2β expressed in E. coli, [^125I-Tyr^0,Glu^1,Nle^17]-sauvagine
Procedure: as §2

hCRFR1α [5] = molecular target: T1, hCRFR1α; assay: Saturation binding of labeled PD-sauvagine, hCRFR1α in E. coli membranes
Procedure: as §1, with “The incubation was performed at room temp for 90-120 min, at which time the plates were aspirated and each well was washed with 2×100 μl assay buffer, dried and counted in a γ-counter. Each assay included at least triplicate wells for each concentration, and the assays were repeated at least twice (except where indicated). […] The saturation” for “The saturation”

mCRFR2β [6] = molecular target: T2, mCRFR2β; assay: Saturation binding of labeled PD-sauvagine, mCRFR2β in E. coli membranes
Procedure: as §1, with “The incubation was performed at room temp for 90-120 min, at which time the plates were aspirated and each well was washed with 2×100 μl assay buffer, dried and counted in a γ-counter. Each assay included at least triplicate wells for each concentration, and the assays were repeated at least twice (except where indicated). […] The saturation” for “The saturation”

hCRFR1α [7] = molecular target: T1, hCRFR1α; assay: Binding of labeled Ucn1, hCRFR1α in E. coli; settings: data not shown
mCRFR2β [8] = molecular target: T2, mCRFR2β; assay: Binding of labeled Ucn1, mCRFR2β in E. coli; settings: data not shown
CRFR1 / CRFR2 = settings: introduction; cited from earlier work
Excerpt: In most vertebrates there are two highly conserved tissue-specifically expressed CRFRs, designated type 1 [15] and type 2 [16], encoded by different genes and approximately 70% identical to each other at the amino acid level. CRFR1 is relatively more abundant in the nervous system, including the pituitary, while CRFR2 is particularly expressed in the heart, skeletal muscle, and gastrointestinal tract. […] The main type 1 isoform in human, ra ...

hCRFR1α [9] = molecular target: T1, hCRFR1α; assay: Competitive displacement of labeled astressin, hCRFR1α in E. coli membranes; format: binding; settings: E. coli membranes (Figure 11A)
Procedure: as §1, with “The incubation was performed at room temp for 90-120 min, at which time the plates were aspirated and each well was washed with 2×100 μl assay buffer, dried and counted in a γ-counter. Each assay included at least triplicate wells for each concentration, and the assays were repeated at least twice (except where indicated). […] The saturation” for “The saturation”

ECD-1s of the CRFRs = settings: cited from earlier work
Excerpt: Further, the CRFRs' coupling to G-proteins in mammalian cells is important for the high affinity binding of agonists, such as sauvagine and CRF, ...

[10] = listed as labeled agonist sauvagine
[11] = labeled PD-sauvagine versus labeled astressin, printed with ref [55]
[12] = nanomolar concentrations, Kd not determined (Figure S3)

T2 sequence (Q60748 25-431 isoform Q60748-2): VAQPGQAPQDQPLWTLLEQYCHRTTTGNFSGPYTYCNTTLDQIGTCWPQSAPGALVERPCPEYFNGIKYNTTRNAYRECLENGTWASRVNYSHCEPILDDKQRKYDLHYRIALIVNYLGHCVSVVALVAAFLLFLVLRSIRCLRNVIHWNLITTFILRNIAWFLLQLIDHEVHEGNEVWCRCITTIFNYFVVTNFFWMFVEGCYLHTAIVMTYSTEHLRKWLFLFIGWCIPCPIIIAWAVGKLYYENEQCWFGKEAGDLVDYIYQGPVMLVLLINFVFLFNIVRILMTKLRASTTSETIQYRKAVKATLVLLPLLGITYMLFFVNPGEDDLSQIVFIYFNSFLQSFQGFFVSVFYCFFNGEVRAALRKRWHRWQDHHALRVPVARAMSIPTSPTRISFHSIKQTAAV

Compound: CCCCN(CC)c1nc(C)nc2c1c(C)c(C)n2-c1c(C)cc(C)cc1C [antalarmin]
Displacement of bound labeled PD-sauvagine (hCRFR1α [1]): displaces labeled PD-sauvagine bound to hCRFR1α (Figure 14) in a dose dependent manner; also recorded: competitively displaces labeled PD-sauvagine bound to a small percentage of the hCRFR1α expressed in E. coli membranes
Binding site (CRFR1): binds to a site defined by residues in transmembrane domains 3 and 5 of CRFR1

Ki (mCRFR2β [2]; read-out: Inhibitory binding constant (Ki)): 11.5 nM
Compound: CC[C@H](C)[C@H](NC(=O)[C@H](CO)NC(=O)[C@H](CC(C)C)NC(=O)[C@@H]1CCCN1C(=O)[C@@H]1CCCN1C(=O)[C@H](CC(=O)O)NC(=O)[C@@H](N)CC(=O)O)C(=O)N[C@@H](CC(=O)O)C(=O)N[C@@H](CC(C)C)C(=O)N[C@H](C(=O)N[C@@H](Cc1ccccc1)C(=O)N[C@@H](Cc1c[nH]cn1)C(=O)N[C@@H](CC(C)C)C(=O)N[C@@H](CC(C)C)C(=O)N[C@@H](CCCNC(=N)N)C(=O)N[C@H](C(=O)N[C@@H](CC(C)C)C(=O)N[C@@H](CC(C)C)C(=O)N[C@@H](CCC(=O)O)C(=O)N[C@@H](CC(C)C)C(=O)N[C@@H](C)C(=O)N[C@@H](CCCNC(=N)N)C(=O)N[C@H](C(=O)N[C@@H](CCC(N)=O)C(=O)N[C@@H](CO)C(=O)N[C@@H](CCC(N)=O)C(=O)N[C@@H](CCCNC(=N)N)C(=O)N[C@@H](CCC(=O)O)C(=O)N[C@@H](CCCNC(=N)N)C(=O)N[C@@H](C)C(=O)N[C@@H](CCC(=O)O)C(=O)N[C@@H](CCC(N)=O)C(=O)N[C@@H](CC(N)=O)C(=O)N[C@@H](CCCNC(=N)N)C(=O)N[C@H](C(=O)N[C@H](C(=O)N[C@@H](Cc1ccccc1)C(=O)N[C@@H](CC(=O)O)C(=O)N[C@@H](CO)C(=O)N[C@H](C(N)=O)C(C)C)[C@@H](C)CC)[C@@H](C)CC)[C@@H](C)O)[C@@H](C)O)[C@@H](C)O [rUcn1]

Binding of labeled sauvagine (hCRFR1α [3]): fail to bind labeled sauvagine
Binding of labeled sauvagine (mCRFR2β [4]): fail to bind labeled sauvagine
Compound: [^125I-Tyr^0,Glu^1,Nle^17]-sauvagine [labeled sauvagine]
Binding of labeled sauvagine (hCRFR1α [3]; [10]): do not bind the labeled agonist sauvagine
Binding of labeled sauvagine (mCRFR2β [4]; [10]): do not bind the labeled agonist sauvagine

Compound: [^125I-Tyr^0,Glu^1]PD-sauvagine [labeled PD-sauvagine]
Binding of labeled PD-sauvagine (hCRFR1α [5]): do bind the other labeled agonist, PD-sauvagine
Number of sites detected (hCRFR1α [5]; [11]): less than that detected by labeled astressin
Saturation of binding (hCRFR1α [5]; [12]): at nanomolar concentrations the binding did not saturate
Binding of labeled PD-sauvagine (mCRFR2β [6]): do bind the other labeled agonist, PD-sauvagine
Number of sites detected (mCRFR2β [6]; [11]): less than that detected by labeled astressin
Saturation of binding (mCRFR2β [6]; [12]): at nanomolar concentrations the binding did not saturate

Compound: labeled Ucn1: labeled Ucn1, binding data not shown (DNPSLSIDLTFHLLRTLLELARTQSQRERAEQNRIIFDSV; ends and bridges not checked; also: labeled (label not given here); UniProt P55089 83-122, looked up)
Binding of labeled Ucn1 (hCRFR1α [7]): observed binding of labeled Ucn1 to the receptors
Binding of labeled Ucn1 (mCRFR2β [8]): observed binding of labeled Ucn1 to the receptors

Displacement of bound labeled astressin (mCRFR2β [2]): does not compete for binding to mCRFR2β
Compound: mUcn3: CRFR2-selective ligand, mouse (FTLSLDVPTNIMNILFNIDKAKNLRAKAAANAQLMAQI; ends and bridges not checked; UniProt Q924A4 123-160, looked up)
Relative affinity for CRFR1 and CRFR2 (CRFR1 / CRFR2): selective for CRFR2

Compound: r/hCRF: CRF is a 41-amino acid (aa) peptide synthesized in the hypothalamus
Relative affinity for CRFR1 and CRFR2 (CRFR1 / CRFR2): tenfold higher affinity for CRFR1 than for CRFR2

Compound: sauvagine
Displacement of bound labeled astressin (hCRFR1α [9]): does not displace labeled astressin bound to either receptor
Displacement of bound labeled astressin (mCRFR2β [2]): does not displace labeled astressin bound to either receptor
Binding to ECD-1s (ECD-1s of the CRFRs): does not bind to the isolated ECD-1s
